We go through 72 compounds from patent US8501757B2, “Substituted phenylamine carboxamide analogs as mGluR5 negative allosteric modulators and methods of making and using the same” (priority 2009, dated 2013).

T1 sequence (P31424 21-1203): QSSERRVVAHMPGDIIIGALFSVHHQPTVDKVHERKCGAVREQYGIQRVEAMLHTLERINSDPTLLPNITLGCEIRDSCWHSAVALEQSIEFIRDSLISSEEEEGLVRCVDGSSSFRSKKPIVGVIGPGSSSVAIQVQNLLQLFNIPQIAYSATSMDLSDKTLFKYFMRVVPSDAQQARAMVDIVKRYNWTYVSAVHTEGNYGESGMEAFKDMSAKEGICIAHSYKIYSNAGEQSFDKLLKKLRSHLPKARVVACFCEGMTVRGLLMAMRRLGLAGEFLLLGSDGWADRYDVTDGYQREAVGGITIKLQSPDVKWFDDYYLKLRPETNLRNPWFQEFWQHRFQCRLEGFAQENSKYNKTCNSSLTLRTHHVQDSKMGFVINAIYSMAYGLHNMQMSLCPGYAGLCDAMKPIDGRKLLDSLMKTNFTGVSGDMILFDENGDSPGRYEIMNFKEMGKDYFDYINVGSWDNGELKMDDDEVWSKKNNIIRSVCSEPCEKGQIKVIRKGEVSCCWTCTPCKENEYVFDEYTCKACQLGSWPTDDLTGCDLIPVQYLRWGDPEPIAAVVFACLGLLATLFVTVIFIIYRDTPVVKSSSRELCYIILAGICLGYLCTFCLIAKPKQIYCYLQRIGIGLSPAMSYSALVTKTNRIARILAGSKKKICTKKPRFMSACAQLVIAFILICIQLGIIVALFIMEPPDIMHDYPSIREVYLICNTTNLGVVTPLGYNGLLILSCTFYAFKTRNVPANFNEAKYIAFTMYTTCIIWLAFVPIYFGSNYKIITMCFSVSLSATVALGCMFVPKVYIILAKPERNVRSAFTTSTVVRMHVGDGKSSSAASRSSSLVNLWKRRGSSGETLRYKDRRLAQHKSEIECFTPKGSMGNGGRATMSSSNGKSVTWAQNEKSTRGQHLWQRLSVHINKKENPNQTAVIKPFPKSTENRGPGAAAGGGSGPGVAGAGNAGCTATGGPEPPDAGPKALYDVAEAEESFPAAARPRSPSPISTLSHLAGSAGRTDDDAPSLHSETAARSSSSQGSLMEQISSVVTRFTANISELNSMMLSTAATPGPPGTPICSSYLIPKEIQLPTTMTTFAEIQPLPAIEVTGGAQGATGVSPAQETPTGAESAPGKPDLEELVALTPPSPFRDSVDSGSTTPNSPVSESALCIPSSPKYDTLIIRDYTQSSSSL

The first assay has as its target T1, rat mGluR5 (Rattus norvegicus, UniProt P31424). As to the kind of experiment: cell-based.
Conditions: not given
On to `[2H]C([2H])([2H])N(c1cncnc1)c1cc(NC(=O)c2cccc(C#N)c2)ccc1Cl`, for which the IC50 – broadly, the point on the concentration scale where inhibition reaches its midpoint – was determined as 0.084 µM.
On the same count and under the same terms, the same measure for `O=C(Nc1cccc(Oc2cccnc2)c1)c1ccc(F)c(Cl)c1`: 6.25 µM; for `CCN(c1cccnc1)c1cc(F)cc(NC(=O)c2cccc(Br)c2)c1`: 0.656 µM; for `CN(c1cncnc1)c1cc(NC(=O)c2cscn2)cc(F)c1F`: 0.08 µM.
On the same count and under the same terms, with `O=C(Nc1cccc(Oc2cncc(F)c2)c1)c1cccc(Br)c1` the figure was 0.124 µM; with `O=C(Nc1cccc(Oc2cccnc2)c1)c1cscn1`, 1.27 µM.
For `N#Cc1cc(NC(=O)c2cc(Br)ccn2)cc(Oc2cncnc2)c1`, half-maximal inhibition (IC50) was put at 0.017 µM.
Still for that read-out and setting: the same measure for `N#Cc1cccc(C(=O)Nc2cc(F)cc(Oc3cncnc3)c2)c1` [drawing 550]: 0.061 ± 0.015 µM.
Still for that read-out and setting: with `O=C(Nc1cccc(Oc2cccnc2)c1)c1nccs1` the figure was 1.6 µM; with `N#Cc1ccc(F)c(C(=O)Nc2cc(F)cc(Oc3cncnc3)c2)c1`, 0.087 µM; with `COc1cccc(C(=O)Nc2cccc(N(C)c3cncnc3)c2)c1`, 0.108 ± 0.032 µM.
Same read-out and setting: the same measure for `CN(c1cncnc1)c1cc(Cl)cc(NC(=O)c2cccc(Cl)c2)c1`: 0.138 µM.
Turning to `CN(c1cncnc1)c1ccc(F)c(NC(=O)c2cccc(Cl)c2)c1`, it took 0.08 µM to reach half-maximal inhibition (IC50).
For `Cc1ccc(Oc2cc(Cl)cc(NC(=O)c3cccc(Cl)c3)c2)cn1`, the IC50 was greater than 10 µM.
For `CN(c1cncnc1)c1cc(NC(=O)c2cccc(F)n2)ccc1F`, the IC50 amounted to 0.0086 µM.
The same measure, in the same setting: the same measure for `O=C(Nc1cccc(Oc2cccnc2)c1)c1cccc(Cl)c1F`: greater than 10 µM; for `CN(c1cccnc1)c1cccc(NC(=O)c2cccc(Cl)c2)c1`: 0.031 ± 0.005 µM.
For `CN(c1cncnc1)c1cc(NC(=O)c2cccc(O)n2)ccc1F`, the IC50 came to 2.91 µM.
On the same count and under the same terms, the same measure for `CN(c1cncnc1)c1cc(NC(=O)c2cccc(C#N)c2)ccc1Cl`: 0.059 µM; for `O=C(Nc1cc(F)c(F)c(Oc2cncnc2)c1)c1ccc(F)cn1`: 5.42 µM; for `N#Cc1cccc(C(=O)Nc2cccc(Oc3cccnc3)c2)c1`: 0.536 µM.
`CN(c1cncnc1)c1cc(F)cc(NC(=O)c2cccc(F)c2)c1`: inhibition was half-maximal at 0.127 µM (IC50).
`Cc1cccc(C(=O)Nc2cc(Cl)cc(Oc3ccc(C)nc3)c2)c1` gave an IC50 of 6.87 µM.
Same read-out and setting: the same measure for `N#Cc1cc(NC(=O)c2cccc(C#N)c2)cc(Oc2cncnc2)c1`: 0.443 µM.
As for `CN(c1cncnc1)c1cc(NC(=O)c2cccc(F)c2)ccc1F`, the IC50 stood at 0.0098 µM.
Still for that read-out and setting: with `CN(c1cncnc1)c1cccc(NC(=O)c2cccc(C#N)c2)c1` the figure was 0.084 ± 0.014 µM; with `N#Cc1cccc(C(=O)Nc2cccc(Oc3cncc(Cl)c3)c2)c1`, 0.155 µM.
For `COc1ccnc(C(=O)Nc2cc(C#N)cc(Oc3cncnc3)c2)c1`, half-maximal inhibition (IC50) was put at 0.063 µM.
The same measure, in the same setting: with `CN(c1cncnc1)c1cc(NC(=O)c2cccc(Br)c2)ccc1F` the figure was 0.014 µM; with `O=C(Nc1cccc(Oc2cccnc2)c1)c1cccc(C(F)(F)F)c1`, 5.99 µM.
The same measure, in the same setting: with `CN(c1cncnc1)c1cccc(NC(=O)c2cccc(C(F)(F)F)n2)c1` the figure was 0.034 ± 0.007 µM; with `CCCN(c1cccnc1)c1cccc(NC(=O)c2cccc(Cl)c2)c1`, 5.49 µM.
As to `N#Cc1cccc(C(=O)Nc2cc(Cl)cc(Oc3cncnc3)c2)c1`, inhibition was half-maximal at 0.063 ± 0.009 µM (IC50).
Take `N#Cc1cccc(C(=O)Nc2cccc(Oc3cncnc3)c2)c1`: half-maximal inhibition (IC50) required 0.58 µM.
`CN(c1cncnc1)c1cc(NC(=O)c2cccc(Br)c2)ccc1Cl`: inhibition was half-maximal at 0.036 µM (IC50).
On the same count and under the same terms, with `CC(C)CN(c1cncnc1)c1cc(NC(=O)c2cccc(Cl)c2)ccc1Cl` the figure was greater than 10 µM; with `O=C(Nc1cc(F)cc(Oc2cncnc2)c1)c1cccc(F)n1`, 2.56 µM; with `CN(c1cccnc1)c1cccc(NC(=O)c2cccc(Br)c2)c1`, 0.083 µM.
On to `O=C(Nc1cccc(Oc2cncnc2)c1)c1cccc(Cl)c1`, for which the IC50 worked out at 0.075 ± 0.013 µM.
The same measure, in the same setting: the same measure for `O=C(Nc1cc(F)cc(Oc2cncnc2)c1)c1cccc(F)c1`: 0.288 µM; for `CCN(c1cccnc1)c1cccc(NC(=O)c2cccc(Br)c2)c1`: 0.208 µM.
In the case of `N#Cc1cc(NC(=O)c2cc(Cl)ccn2)cc(Oc2cncnc2)c1`, the IC50 was found to be 0.016 µM.
The compound `N#Cc1cc(C(=O)Nc2cc(F)cc(Oc3cncnc3)c2)ccc1F` yielded an IC50 of 1.64 µM.
Take `CCN(c1cccnc1)c1cccc(NC(=O)c2cccc(C#N)c2)c1`: half-maximal inhibition (IC50) required 0.12 µM.
On the same count and under the same terms, with `CN(c1cncc(Cl)c1)c1cccc(NC(=O)c2cccc(C#N)c2)c1` the figure was greater than 10 µM; with `Cc1nc(C(=O)Nc2cccc(Oc3cccnc3)c2)cs1`, 4.21 µM; with `CN(c1cncnc1)c1cc(NC(=O)c2cccc(C#N)c2)cc(F)c1F`, 0.148 µM.
In turn, `Cc1ncccc1Oc1cccc(NC(=O)c2cccc(Cl)c2)c1` returned an IC50 of 2.23 µM.
Still for that read-out and setting: the same measure for `CN(c1cncc(Cl)c1)c1cccc(NC(=O)c2cccc(Cl)c2)c1`: greater than 10 µM.
Same read-out and setting: the same measure for `CC(C)Oc1ccnc(C(=O)Nc2cc(F)cc(Oc3cncnc3)c2)c1`: 0.23 µM.
In the case of `CN(c1cncnc1)c1cccc(NC(=O)c2cccc(F)c2)c1`, the midpoint of inhibition, the IC50, lay at 0.021 ± 0.004 µM.
On the same count and under the same terms, with `O=C(Nc1cccc(Oc2cccnc2)c1)c1cccc(F)n1` the figure was 3.53 µM.
For `O=C(Nc1cc(F)cc(Oc2cncnc2)c1)c1cccc(OC(F)(F)F)c1`, the IC50 worked out at 0.417 µM.
As for `O=C(Nc1cccc(Oc2cncnc2)c1)c1cccc(Br)c1`, the IC50 is 0.053 µM.
On to `Cc1csc(C(=O)Nc2cccc(Oc3cccnc3)c2)n1`, for which the IC50 is 0.465 µM.
With `CCN(c1cccnc1)c1cccc(NC(=O)c2cccc(Cl)c2)c1`, the IC50 is 0.111 ± 0.021 µM.
Same read-out and setting: with `CCN(c1cccnc1)c1cc(F)cc(NC(=O)c2cccc(Cl)c2)c1` the figure was 0.388 µM.
In the case of `COc1cccc(C(=O)Nc2cc(F)cc(Oc3cncnc3)c2)c1`, the IC50 is 0.311 µM.
`O=C(Nc1cc(Oc2cccnc2)cc(C(F)(F)F)c1)c1cccc(Cl)c1`: the IC50 is greater than 30 µM.
Same read-out and setting: with `Cc1cccc(C(=O)Nc2cccc(Oc3cccnc3)c2)c1` the figure was 0.286 µM.
Same read-out and setting: with `CN(c1cncnc1)c1cc(NC(=O)c2cccc(F)c2)ccc1Cl` the figure was 0.016 µM; with `O=C(Nc1cc(F)c(F)c(Oc2cncnc2)c1)c1cc(F)ccn1`, 1.69 µM.
Consider `CN(c1cncnc1)c1cc(NC(=O)c2cccc(C#N)c2)ccc1F`, for which the IC50 was found to be 0.051 µM.
On the same count and under the same terms, the same measure for `CN(c1cncnc1)c1cc(NC(=O)c2cccc(F)c2)cc(F)c1F`: 0.028 µM.
Still for that read-out and setting: the same measure for `COc1cccc(C(=O)Nc2cccc(Oc3cccnc3)c2)n1`: 8.34 µM.
For the compound `CCN(c1cncnc1)c1cccc(NC(=O)c2cccc(C#N)c2)c1`, inhibition was half-maximal at 0.043 µM (IC50).
`O=C(Nc1cc(Cl)cc(Oc2cncc(F)c2)c1)c1cccc(Cl)n1` yielded an IC50 of 5.37 µM.

The target of a further assay is human mGluR5 (Homo sapiens, UniProt P41594). Nature of the assay: cell-based.
human mGluR5, sequence (P41594 21-1212): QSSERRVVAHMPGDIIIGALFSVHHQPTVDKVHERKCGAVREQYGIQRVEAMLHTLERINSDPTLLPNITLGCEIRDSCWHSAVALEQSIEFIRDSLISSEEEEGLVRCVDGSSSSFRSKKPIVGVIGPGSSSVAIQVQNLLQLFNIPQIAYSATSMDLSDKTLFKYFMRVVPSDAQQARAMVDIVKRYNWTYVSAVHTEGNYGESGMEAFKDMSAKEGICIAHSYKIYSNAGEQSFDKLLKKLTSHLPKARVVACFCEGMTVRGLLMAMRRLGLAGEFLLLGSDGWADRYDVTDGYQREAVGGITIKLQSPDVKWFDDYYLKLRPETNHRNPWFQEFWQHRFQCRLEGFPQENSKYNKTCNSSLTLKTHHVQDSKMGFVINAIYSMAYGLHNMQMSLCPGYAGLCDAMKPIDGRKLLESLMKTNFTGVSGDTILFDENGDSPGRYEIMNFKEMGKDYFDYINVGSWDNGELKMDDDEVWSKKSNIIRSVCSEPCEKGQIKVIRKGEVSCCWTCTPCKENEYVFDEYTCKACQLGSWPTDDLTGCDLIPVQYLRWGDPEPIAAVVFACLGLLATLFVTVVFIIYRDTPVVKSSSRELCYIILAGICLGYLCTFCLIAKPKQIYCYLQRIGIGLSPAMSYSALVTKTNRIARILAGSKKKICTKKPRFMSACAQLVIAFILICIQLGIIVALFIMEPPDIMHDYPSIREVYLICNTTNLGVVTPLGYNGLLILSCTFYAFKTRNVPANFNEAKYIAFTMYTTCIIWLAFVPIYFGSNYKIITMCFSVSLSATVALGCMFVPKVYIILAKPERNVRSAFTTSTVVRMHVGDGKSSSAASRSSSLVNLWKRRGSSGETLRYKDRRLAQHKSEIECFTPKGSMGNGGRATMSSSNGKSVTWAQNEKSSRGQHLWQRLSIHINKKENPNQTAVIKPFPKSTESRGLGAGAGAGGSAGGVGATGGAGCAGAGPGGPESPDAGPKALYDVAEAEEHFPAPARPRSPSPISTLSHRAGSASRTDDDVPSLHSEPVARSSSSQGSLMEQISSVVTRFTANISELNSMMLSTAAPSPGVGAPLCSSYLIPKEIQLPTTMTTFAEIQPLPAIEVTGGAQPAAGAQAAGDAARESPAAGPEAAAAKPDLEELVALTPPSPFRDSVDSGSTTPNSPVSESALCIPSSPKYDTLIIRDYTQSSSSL
Conditions: not given
On to `CN(c1cncnc1)c1cc(NC(=O)c2cccc(Cl)c2)ccc1F`, for which the IC50 came to 0.011 µM.
`N#Cc1cccc(C(=O)Nc2cc(F)cc(Oc3cncnc3)c2)c1` [drawing 665]: the IC50 was determined as 0.06 µM.
Regarding `O=C(Nc1cc(Cl)cc(Oc2cncnc2)c1)c1cccc(Cl)c1`, half-maximal inhibition (IC50) was put at 0.03 µM.
The compound `N#Cc1cc(NC(=O)c2cccc(Br)c2)cc(Oc2cncnc2)c1` had an IC50 of 0.094 µM.
Same read-out and setting: the same measure for `N#Cc1cccc(C(=O)Nc2cccc(Oc3cncc(F)c3)c2)c1`: 0.249 µM.

A further assay deals with T1, rat mGluR5.
Assay: not given
The following applies: read-out: mGluR5, IC50 rat; HEK cells expressing rat mGluR5.
Take `N#Cc1cccc(C(=O)Nc2cc(F)cc(Oc3cncnc3)c2)c1` [drawing 665]: the IC50 came out at 0.061 ± 0.015 µM.
